{"source": "patent US20090105149A1", "about": "“Compounds comprising lpa” (ENKAM PHARMACEUTICALS A/S, priority 2003, published 2009)", "key": {"[1]": {"test_system": "dissociated hippocampal neurons", "test": "OGD, FM 1-43 release in dissociated hippocampal cell cultures", "format": "cell-based, rat", "excerpt": "(§1) In the present study it was investigated the effect of the FGL peptide on synaptic plasticity, neuronal function and vulnerability following oxygen and glucose deprivation (OGD) in organotypic hippocampal neuronal slice cultures (OHSC) from 7-day-old Wistar rats according to method of Stoppini et al. (1991) Neurosci Methods. 37:173-82 and primary cultures of dissociated hippocampal neurons from 1-day-old rats according to method of Maar et al. (1997) J Neurosci Res. 47:163-72. Primary cell cultures were maintained for 11-12 days and OHSC for 12-14 days prior to adding FGLd.\n(§2) The primary cell cultures and OHSC were exposed to OGD for 10 and 20 minutes. Following OGD, the cultures were again supplied with oxygen and glucose and analysed at 1, 4 or 24 hour time point after introduction of OGD exposure. FGLd (or the control peptide FGLc) was added 24 hr before, immediately, or 1 hr or 24 hr after OGD. When administered prior to OGD, FGLd was removed from the medium when introducing OGD. In some cases, the slice cultures were treated with FGLd only at 4 hr after OGD. In addition, the FGFR inhibitor, SU5402 (25 μM), was added together with FGLd in some of the set-ups.\n(§3) In hippocampal neuronal cultures, FM 1-43 staining was used to evaluate pre-synaptic function (described above). Cell viability in both primary cell cultures and OHSC was measured using the […] [3-(4,5-dimethylthiazol-2-yl)-2,5-diphenyltetrazolium bromide] assay according to Malich et al, (1997) Toxicology. 124:179-92. In, addition, cell viability in OHSC was measured using propidium iodide (PI) staining according to Laake et al. (1999) Brain Res Brain Res Protoc. 4:173-84."}, "[2]": {"test_system": "hippocampal neurons", "test": "Neurite outgrowth, hippocampal neurons", "format": "cell-based, rat", "settings": "24 h", "procedure": "The cultures were subsequently immunostained for tyrosine hydroxylase. Hippocampal neurons and CGN were plated at a density of 10,000 cells/cm^2 on 8-well permanox chamber slides and incubated for 24 hours in the presence of various concentrations of FGLd. Subsequently the neurons were immunostained for GAP-43. Results from at least five independent experiments for each neuronal culture are shown as percentage ±SEM with the untreated controls set at 100%. *p<0.05, **p<0.01, ***p<0.001 when compared to the controls.\nResults from at least four independent experiments are shown as percentage SEM with untreated controls set at 100%. **p<0.01 when compared to the controls.\nPeptide solutions without or with inhibitors of various signal transduction pathways were added to a total volume of 300 μl/cm^2, and the slides were incubated at 37° C. After 24 hours, the neurons were fixed with 4% (v/v) formaldehyde for 20 minutes and thereafter immunostained using primary rabbit antibodies against GAP-43 and Alexa Fluor secondary goat anti-rabbit antibodies. Images of at least 200 neurons for each group in each individual experiment were obtained systematically by using computer assisted fluorescence microscopy as previously described (Rønn et al., 2000 op. cit.). Briefly, a Nikon Diaphot inverted microscope with a Nikon Plan 20× objective (Nikon, Tokyo, Japan) coupled to a video camera (Grundig Electronics, Germany) was used for recordings. The same software package as described above for the dopaminergic neurite outgrowth assay was used to process the recorded images."}, "[3]": {"test_system": "rats treated with (25-35) β-amyloid fragment", "test": "Light-dark Discriminating Y-maze with positive food reinforcement", "format": "in vivo, rat", "procedure": "The present study employed a rat model, in which neurotoxicity and cognitive impairment were induced by the (25-35) β-amyloid peptide fragment (see Maurice T., et al. (1996) (Brain Res. 706:181-93) and Delobette S., et al. (1997) Eur J Pharmacol. 319:1-4). Short-term memory deficit induced by the (25-35) β-amyloid peptide fragment in rat is of special importance to study, as it resembles one of the clinical manifestations of Alzheimer's disease. Short-term memory deficit in rats was evaluated using three different behavioural tests: the Social Recognition (Kogan et al, (2000) Hippocampus 10:47-56), Open Field (Cerbone and Sadile, (1994) Neurosci Biobehav Rev. 18:497-518; Vianna et al, (2000) Learn Mem. 7:333-40) and Y-maze (Clayton & Williams, (2000) Neurobiol Learn Mem. 74:135-45) tests. […]\nBehaviour of animals was evaluated using the Social Recognition test, the Open Field test or the Light-dark Discriminating γ-maze. On day 28-30 or day 51 after i.c.v. administration of the (25-35) β-amyloid fragment, the animals were sacrificed, and in selected studies, the brain tissue was collected, histological sections were immunostained with A-β specific antibodies and the amyloid-burden was calculated as a percentage of the A-βpositive area. In addition, the number of neurons in selected areas of brain-sections was calculated using a stereological approach."}, "[4]": {"test_system": "organotypic hippocampal neuronal slice cultures (OHSC)", "test": "OGD, propidium iodide staining of OHSC", "format": "cell-based, rat", "excerpt": "as §1, §2, §3"}, "[5]": {"test_system": "rats", "test": "Morris Water Maze test", "format": "in vivo, rat", "procedure": "In the Morris Water Maze test, rats are evaluated in the spatial training task to find a hidden platform in order to escape swimming in the water.\nIn the Morris Water Maze study, rats were pre-trained to locate a hidden platform by daily training for 120 seconds for five days (days−4 to 0) before the experiment. On days 1 and 2, rats were given 3 consecutive trials in which the platform location remained constant. The time during which the rats were able to locate the platform was recorded within a maximum test-period of 120 seconds. The rats received a 5 μl injection of the FGLd peptide (5 μg), the control peptide (5 μg), or the vehicle solution immediately after each training trial on days 1 and 2.\nThe animals were tested 24 hours (day 3) and 7 days (day 10) after training. Fourteen days after training (day 17), the location of the platform was changed. Rats were trained to find a new location of the platform in three consecutive trials (“reversal learning”). In total, 48 animals were evaluated. Animals were divided into three groups consisting of 12-18 rats per treatment group."}}}
{"substance": "FGLd: MAP-type dendrimer of FGL; dendrimeric tetramer of the FGL peptide (EVYVVAENQQGKSKA)", "values": [{"measurement": "rate of FM 1-43 release after OGD", "setting": "[1]; treated 24 hours before or immediately after OGD", "value": "the OGD-induced decrease in the rate of FM 1-43 release was diminished"}, {"measurement": "rate of pre-synaptic vesicle release (FM 1-43 destaining) upon high potassium stimulation", "setting": "[1]; treatment without OGD, control 0.04", "value": 0.06, "unit": "s⁻¹"}, {"measurement": "neurite length, hippocampal neurons, plateau-like level", "setting": "[2]; 0.04 up to 20 μg/ml, untreated control = 100%", "value": "approximately 150%"}, {"measurement": "Effect on Neurite Length (Percent Increase vs. Control)", "setting": "[2]; HN E19, 3 μg/mL", "value": 65, "unit": "%"}, {"measurement": "Effect on Neurite Length (Percent Increase vs. Control)", "setting": "[2]; HN E19, 9 μg/mL", "value": 51, "unit": "%"}, {"measurement": "Effect on Neurite Length (Percent Increase vs. Control)", "setting": "[2]; HN E19, 27 μg/mL", "value": 69, "unit": "%"}, {"measurement": "Effect on Neurite Length (Percent Increase vs. Control)", "setting": "[2]; HN Newborn, 0.04 μg/mL", "value": 38, "unit": "%"}, {"measurement": "Effect on Neurite Length (Percent Increase vs. Control)", "setting": "[2]; HN Newborn, 5 μg/mL", "value": 45, "unit": "%"}, {"measurement": "number of errors", "setting": "[3]; day 25, last day of training, sub-occipital, β-amyloid control 3.8", "value": 1.7}, {"measurement": "number of errors", "setting": "[3]; training days 21-24, vs β-amyloid fragment-treated control", "value": "no significant differences"}, {"measurement": "PI staining (cell damage) after 10 minutes of OGD", "setting": "[4]; slices pre-treated for 24 hours", "value": "almost completely abolished"}, {"measurement": "PI staining (cell damage) after 10 minutes of OGD", "setting": "[4]; treated immediately after OGD", "value": "Cell damage was also avoided"}, {"measurement": "PI staining (cell damage) after 10 minutes of OGD", "setting": "[4]; treatment delayed until 4 hours after OGD", "value": "not if FGLd treatment was delayed until 4 hours after OGD"}, {"measurement": "time to locate the platform", "setting": "[5]; day 2, 5 μg after training, untreated rats 93.0 s", "value": 65.8, "unit": "s"}, {"measurement": "time to locate the platform (reversal learning)", "setting": "[5]; day 17", "value": "statistically significant"}]}
